For one series, the system named is SW-620. The series can be described thus: Antiproliferative activity against human SW620 cells after 72 hrs by MTT assay. It counts as functional, cell-based. The conditions noted are these: SW-620, 72 h.
The test system of the next series is HepG2. The series is described as follows: Antiproliferative activity against human HepG2 cells after 72 hrs by MTT assay. The series is classed as functional, cell-based. The conditions noted are these: HepG2, 72 h.
Another series has as its system CFPAC-1. The series is described as follows: Antiproliferative activity against human CFPAC-1 cells after 72 hrs by MTT assay. The series is classed as functional, cell-based. The conditions noted are these: CFPAC-1, 72 h.
A further series concerns HeLa. The series is described as follows: Antiproliferative activity against human HeLa cells after 72 hrs by MTT assay. It counts as functional, cell-based.
A further series has as its system WI-38. The series can be described thus: Cytotoxicity against human WI38 cells after 72 hrs by MTT assay. To be noted: WI-38, 72 h. The series is classed as cell-based.
Series [1] relates to Calf thymus DNA. The series can be described thus: Binding affinity to calf thymus duplex DNA assessed as change in melting temperature at drug to DNA ratio of 0.5 measured for every mins by spectrophotometric analysis. It counts as nucleic-acid assay. The conditions noted are these: Bos taurus.
Series [2] has as its system Calf thymus DNA. The series can be described thus: Binding affinity to calf thymus duplex DNA assessed as change in melting temperature at drug to DNA ratio of 1 measured for every mins by spectrophotometric analysis. The series is classed as nucleic-acid assay. To be noted: Bos taurus.
Series [3] deals with Calf thymus DNA. The series is described as follows: Binding affinity to calf thymus duplex DNA assessed as hypochromic effect up to drug to DNA ratio of 1 by UV-visible spectroscopic method. It counts as nucleic-acid assay. To be noted: Bos taurus.
Series [4] concerns the target T1, DNA topoisomerase 1 (Homo sapiens) (UniProt P11387).
T1 sequence (whole entry): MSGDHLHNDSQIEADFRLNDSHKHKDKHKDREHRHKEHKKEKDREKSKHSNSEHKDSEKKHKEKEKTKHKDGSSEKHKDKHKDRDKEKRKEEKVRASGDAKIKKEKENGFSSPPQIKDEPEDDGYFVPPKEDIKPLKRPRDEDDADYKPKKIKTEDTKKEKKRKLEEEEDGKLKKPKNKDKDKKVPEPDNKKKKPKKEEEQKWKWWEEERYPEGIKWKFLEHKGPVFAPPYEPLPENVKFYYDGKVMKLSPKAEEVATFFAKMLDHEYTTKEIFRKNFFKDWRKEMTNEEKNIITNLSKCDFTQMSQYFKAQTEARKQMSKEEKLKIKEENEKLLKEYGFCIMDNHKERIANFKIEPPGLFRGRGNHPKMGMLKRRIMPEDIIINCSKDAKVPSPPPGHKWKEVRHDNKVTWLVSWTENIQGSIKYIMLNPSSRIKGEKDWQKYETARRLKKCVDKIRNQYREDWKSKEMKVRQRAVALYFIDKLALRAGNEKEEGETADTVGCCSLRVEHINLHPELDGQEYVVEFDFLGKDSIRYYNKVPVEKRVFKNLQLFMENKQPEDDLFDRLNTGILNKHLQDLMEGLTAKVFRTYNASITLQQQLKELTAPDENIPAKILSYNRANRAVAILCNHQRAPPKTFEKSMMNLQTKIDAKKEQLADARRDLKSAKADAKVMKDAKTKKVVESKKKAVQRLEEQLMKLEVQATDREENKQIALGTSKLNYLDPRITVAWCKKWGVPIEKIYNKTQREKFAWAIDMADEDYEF
The series is described as follows: Inhibition of human topoisomerase-1 assessed as increase in accumulation of supercoiled pUC19 DNA at 1 to 50 uM by ethidium bromide staining based agarose gel electrophoresis.

Series [5] has as its target T1, DNA topoisomerase 1 (Homo sapiens). The series is described as follows: Inhibition of human topoisomerase-1 assessed as increase in accumulation of supercoiled pUC19 DNA at 1 to 50 uM in absence of ethidium bromide staining by agarose gel electrophoresis.
For series [6] the target is unchanged. The series can be described thus: Poison activity at human topoisomerase-1 assessed as increase in relaxation of supercoiled pUC19 DNA at 1 to 50 uM by ethidium bromide staining based agarose gel electrophoresis.
For series [7], the system named is Calf thymus DNA. The series can be described thus: Binding affinity to calf thymus duplex DNA by CD spectrum analysis. It counts as nucleic-acid assay. To be noted: Bos taurus.
For series [8], the system named is Calf thymus DNA. The series can be described thus: Binding affinity to calf thymus duplex DNA assessed as hypochromic effect up to drug to DNA ratio of 8 by UV-visible spectroscopic method. The series is classed as nucleic-acid assay. The conditions noted are these: Bos taurus.
The subject of series [9] is Calf thymus DNA. The series is described as follows: Binding affinity to calf thymus duplex DNA assessed as bathochromic shift up to drug to DNA ratio of 8 by UV-visible spectroscopic method. It counts as nucleic-acid assay. To be noted: Bos taurus.
Series [10] relates to Calf thymus DNA. The series is described as follows: Binding affinity to calf thymus duplex DNA assessed as hyperchromic effect up to drug to DNA ratio of 8 by UV-visible spectroscopic method. To be noted: Bos taurus. It counts as nucleic-acid assay.
Series [11] can be described thus: Drug uptake in nucleus of human 786-O cells at 10 uM after 4 hrs by propidium iodide staining-based fluorescence microscopic analysis. The series is classed as ADME, subcellular. The conditions noted are these: 786-0, 4 h.
Series [12] deals with Calf thymus DNA. The series is described as follows: Binding affinity to calf thymus duplex DNA assessed as bathochromic shift at drug to DNA ratio of 1 to 8 by UV-visible spectroscopic method. To be noted: Bos taurus. The series is classed as nucleic-acid assay.
The target in series [13] is T1, DNA topoisomerase 1 (Homo sapiens). The series can be described thus: Poison activity at human topoisomerase-1 assessed as increase in relaxation of supercoiled pUC19 DNA at 50 uM by ethidium bromide staining based agarose gel electrophoresis.
The subject of series [14] is Calf thymus DNA. The series can be described thus: Binding affinity to calf thymus duplex DNA assessed as hyperchromic effect at drug to DNA ratio of 1 to 8 by UV-visible spectroscopic method. The series is classed as nucleic-acid assay. To be noted: Bos taurus.
The subject of series [15] is Calf thymus DNA. The series is described as follows: Binding affinity to calf thymus duplex DNA assessed as change in melting temperature at drug to DNA ratio of 0.25 measured for every mins by spectrophotometric analysis. To be noted: Bos taurus. The series is classed as nucleic-acid assay.
The nature of series [16]: Binding affinity to AT-rich site of 3'-end radiolabelled 265 bp pBS DNA at 0.01 to 10 uM after 15 mins by DNase I footprinting assay.

Active and inactive are the calls of the source. The rule behind the calls is not given here. Some results are limits rather than exact numbers.

For `O=C(Nc1nc2ccc([N+](=O)[O-])cc2[nH]1)c1sc2cc(C3=NCCN3)ccc2c1Cl`, the IC50 in the series on SW-620 amounted to 6.18 µM; with HepG2 it was 2.23 µM; in the series with CFPAC-1 it was 6.93 µM; in the series on HeLa, 2.61 µM; in the series on WI-38 it was 4.06 µM. The ΔTm with Calf thymus DNA [1] and in the series with Calf thymus DNA [2] was 2.4 °C throughout. Besides, in the series with Calf thymus DNA [3], the outcome was Active. For the same molecule, the inhibition entry in series [4] and in series [5] was “Active” throughout. Also, in [6], the result was inactive.

Turning to `O=C(Nc1nc2ccc(C3=NCCN3)cc2s1)c1sc2cc([N+](=O)[O-])ccc2c1Cl`, the IC50 in the series with SW-620 is 69.1 µM; in the series with HepG2 it was 6.43 µM; in the series with CFPAC-1 it was 6.81 µM; in the series with HeLa it was 5.58 µM; in the series on WI-38, over 100 µM. Moreover, the ΔTm with Calf thymus DNA [1] was -0.8 °C; in the series on Calf thymus DNA [2] it was 0.8 °C.

As for `O=C(Nc1nc2ccc(C3=NCCN3)cc2s1)c1sc2ccccc2c1Cl`, the IC50 in the series with SW-620 turned out to be 4.44 µM; in the series on HepG2 it was 4.51 µM; with CFPAC-1 it was 4.18 µM; with HeLa it was 4.09 µM; in the series with WI-38 it was 5.06 µM. Further, the figures for the shift in melting temperature (ΔTm) with Calf thymus DNA [1] and with Calf thymus DNA [2] were -0.2 °C and -1.7 °C, respectively.

Regarding `O=C(Nc1nc2ccccc2s1)c1sc2cc(C3=NCCN3)ccc2c1Cl`, the IC50 in the series on SW-620 was determined as 7.05 µM; in the series on HepG2, 14.2 µM; with CFPAC-1 it was 5.04 µM; in the series on HeLa, 1.16 µM; in the series on WI-38, 4.24 µM. The inhibition entry in [4] was “inactive”. The Activity result in the series with Calf thymus DNA [7] is “Dose-dependent effect”. The result in the series with Calf thymus DNA [8] was Active. The result (in the series on Calf thymus DNA [9]; in series [6]; in the series with Calf thymus DNA [10]) was inactive.

For `Cl.O=C(Nc1nc2ccc(C3=NCCN3)cc2[nH]1)c1sc2ccccc2c1Cl`, the IC50 with SW-620 was determined as 10.3 µM; in the series with HepG2, 5.41 µM; with CFPAC-1, 20.7 µM; with HeLa, 3.89 µM; in the series with WI-38 it was 9.94 µM. Besides, in series [11], the Drug uptake entry is given as “Active”. For the same molecule, the ΔTm in the series with Calf thymus DNA [1] came out at 1.9 °C; in the series with Calf thymus DNA [2], 3.9 °C. Besides, the outcome with Calf thymus DNA [3], in the series on Calf thymus DNA [12] and with Calf thymus DNA [14] was Active. Further, the Activity result with Calf thymus DNA [7] is “Dose-dependent effect”. Besides, the outcome in series [13] was inactive.

Consider `O=C(Nc1nc2ccc(C3=NCCN3)cc2s1)c1sc2cc(C3=NCCN3)ccc2c1Cl`, for which the IC50 with SW-620 amounted to 82 µM; with HepG2, 95.2 µM; in the series on CFPAC-1, 61.3 µM; with HeLa it was 49.1 µM; with WI-38, 86.5 µM. Also, the results for the ΔTm with Calf thymus DNA [1] and with Calf thymus DNA [2] were 1 °C and 1.5 °C, respectively.

Take `Cl.O=C(Nc1nc2ccccc2[nH]1)c1sc2cc(C3=NCCN3)ccc2c1Cl`: the IC50 turned out to be 5.49 µM with SW-620; 2.47 µM in the series with HepG2; 4.84 µM in the series on CFPAC-1; 2.31 µM in the series on HeLa; 2.97 µM with WI-38. In series [11], the Drug uptake result was “Active”. Besides, the ΔTm in the series on Calf thymus DNA [1] is 3.7 °C; in the series with Calf thymus DNA [2] it was 6.3 °C. Besides, the outcome with Calf thymus DNA [3], with Calf thymus DNA [12] and in the series on Calf thymus DNA [14] was Active. Also, the inhibition entry in [4] and in series [5] was “Active” in each case. Moreover, in [6], the result was inactive.

With `Cl.Cl.O=C(Nc1nc2ccc(C3=NCCN3)cc2[nH]1)c1sc2cc(C3=NCCN3)ccc2c1Cl`, the IC50 with SW-620 was over 100 µM; in the series on HepG2 it was over 100 µM; in the series on CFPAC-1, over 100 µM; in the series with HeLa it was over 100 µM; with WI-38, 56.3 µM. Further, the Drug uptake entry in [11] is listed as “Active”. For the same molecule, the values for the ΔTm in the series on Calf thymus DNA [15] and in the series with Calf thymus DNA [1] were 14.6 °C and 16.6 °C, respectively. The outcome (with Calf thymus DNA [3]; in the series with Calf thymus DNA [12]; in [16]; in the series with Calf thymus DNA [14]) was Active. The inhibition result in [4] and in series [5] was “Active” throughout. For the same molecule, the result in [6] was inactive.

The values above are taken from ChEMBL document CHEMBL4138108, “Novel amidino substituted benzimidazole and benzothiazole benzo[b]thieno-2-carboxamides exert strong antiproliferative and DNA binding properties” (Eur J Med Chem, 2017).
